Results: patent publication US5641861A, “μopioid receptor ligands: agonists and antagonists” (Torrey Pines Institute For Molecular Studies, priority 1995, dated 1997)
Where no end group is shown, it is not given here. [ ]: non-standard residue; d: D form.

Experiments:
[1] = system: MU RECEPTOR; assay: Agonist or antagonist activity by adenylyl cyclase assay or GPI assay (not specified which); details: Table 13
[2] = target: T1, μ receptor (Homo sapiens, UniProt P35372); assay: Adenylyl cyclase assay, SH-SY5Y neuroblastoma cell membranes; assay type: biochemical; details: AGONISTS section; cyclic AMP level, agonist alone at 100 μM
T1 construct: An adenylyl cyclase assay using human SH-SY5Y neuroblastoma cell line membranes; endogenous in cells; host or cells: human SH-SY5Y neuroblastoma cells, retinoic-acid differentiated; membranes
Protocol: An adenylyl cyclase assay using human SH-SY5Y neuroblastoma cell line membranes was used to rapidly determine the opioid agonists or antagonist properties of individual peptides. Opioid agonist inhibit adenylyl cyclase activity, resulting in reduced levels of cyclic AMP.
Cell membranes were prepared for use in the adenylyl cyclase assays as previously described (Law et al., Mol. Pharmacol., 23:26-35 (1983), which is herein incorporated by reference). After the initial centrifugation at 200×g for 15 min at 4° C., the cells were resuspended in sucrose buffer (0.32M sucrose, 40 mM HEPES, 2 mMEGTA, pH 7.6). Cells were centrifuged again at 200×g, then homogenized in sucrose buffer with five strokes of a Dounce Homogenizer (Wheaton Instruments, Millville, N.J.). […]
SH-SY5Y membranes were incubated in a final volume of 100 μl of 40 mM HEPES, pH 7.7, containing 15 units of creatine phosphokinase, 20 mM phosphocreatine, 1 mM 1,10-o-phenanthroline, 60 μM isobutylmethylxanthine (IBMX), 50 μM ATP, 50 μM GTP, 3 mM MgCl2 and 100 mM NaCl. […] The amount of cyclic AMP present in 100 μl of the supernatant, equivalent to the cyclic AMP produced by 15 μg of membrane protein, was determined using a cyclic AMP kit (Diagnostic Products, Los Angeles, Calif.). […] The final supernatants were counted in 10 ml of Ecolite (+) scintillation fluid (ICN Pharmaceuticals, Covina, Calif.).

[3] = system: mouse vas deferens; assay: Mouse vas deferens (MVD) bioassay; details: inhibition of electrically stimulated contraction
Excerpt: The mouse vas deferens (MVD) bioassay was also used to determine whether a peptide is an opioid agonist or an opiod antagonist. Again, such information is not available from the radioreceptor binding assay results.
The MVD assay (Henderson et al., Br. J. Pharma. 12:119-127 (1957), which is incorporated herein by reference) is another one of the most widely used assays for the determination of opioid activities in vitro. This assay, like the GPI assay, is based on the ability of opioid agonists to inhibit electrically stimulated contractions in tissue. The MVD assay is also not "clean" in that, in addition to the predominant δ receptor, the μ and κ receptors are also present. […]
Mouse vasa deferentia were dissected and placed in Krebs solution. The responses of the longitudinal muscle were recorded under a basal tension of 0.5 g and excited by pulses of 1 millisecond duration.
In all bioassays, a dose-response curve with a reference compound (e.g., [D-Ala^2, Leu^5 ]enkephelinamide or U50,488) is used in each preparation. […] Potencies of new compounds to be tested are determined relative to that of the reference compound, and their IC50 values are normalized based on an average IC50 value which has been obtained for the reference compound by performance of many determinations with a large number of preparations. […]

[4] = system: guinea-pig ileum; details: inhibition of electrically stimulated contraction; read-out: GPI IC50
Excerpt: The GPI assay (Kosterlitz et al., Br. J. Pharam. 39:398-418 (1970), which is incorporated herein by reference), is one of the most widely used assays for the determination of opioid activities in vitro. The assay is based on the ability of opioid agonists to inhibit electrically stimulated contraction in tissue. GPI is not a "clean" assay insofar as the ileum preparation contains both μ and κ receptors. However, μ receptor mediated-effects in the GPI can be distinguished from κ receptor mediated effects by determining Ke values for naloxone as the antagonist (μ effects: Ke ~1-3 nM); κ effects: Ke ~20-30 nM) or by using specific μ or κ antagonists.
The guinea pigs were killed by decapitation. […] Isometric contractions were measured via strain gauge force transducers and recorded on stripchart recorders.
In all bioassays, a dose-response curve with a reference compound (e.g., [D-Ala^2, Leu^5 ]enkephelinamide or U50,488) is used in each preparation. […] Ke values for naloxone or other antagonists are determined from the ratio of IC50 values (DR) obtained with the peptide under investigation in the presence and absence of a fixed concentration of the antagonist, using the formula Ke =a/(DR-1) ("a"=fixed concentration). A log dose-response curve is obtained with [Leu^5 ]enkephalin for each ileum and vas deferens preparation and the IC50 value is determined. […]

[5] = target: T2, κ receptors (Cavia porcellus, UniProt P41144); assay: Radioreceptor assay selective for κ receptors ([3H]-U69,593); assay type: binding, guinea pig; details: ratio of IC50 values
T2 construct: tissue homogenates prepared from guinea pig brains (cortex and cerebellum); tissue Harlan Bioproducts for Science; host or cells: guinea pig brain (cortex and cerebellum) homogenate
Protocol: Assays selective for κ receptors were carried out using [^3 H]-U69,593 (3 nM, specific activity 62 Ci/mmol) as the radioligand and tissue homogenates prepared from guinea pig brains (cortex and cerebellum) using Tris buffer containing 100 μM PMSF, 5 mMMgCl2 and 1 mg/ml BSA, pH 7.4. Sample tubes were incubated for 2.5 hr.

[6] = target: T3, δ receptors (Rattus norvegicus, UniProt P33533); assay: Radioreceptor assay selective for δ receptors ([3H]-naltrindole); assay type: binding; details: ratio of IC50 values
T3 construct: Radioreceptor assays selective for δ receptors were performed using rat brain homogenates; tissue Harlan Bioproducts for Science; host or cells: rat brain crude membrane homogenate
Protocol: Radioreceptor assays selective for δ receptors were performed using rat brain homogenates as above and [^3 H]-naltrindole (0.5 nM, specific activity 34.7 Ci/mmol) as radioligand in Tris buffer containing 100 μM phenylmethylsulfonyl fluoride (PMSF), 5 mMMgCl2 and 1 mg/ml bovine serum albumin (BSA), pH 7.4. Samples were incubated for 2.5 hr. Standard curves were prepared using 0.10-3200 nM [^3 H]-D-Pen2, Pen5 ]-enkephalin ([^3 H]-DPDPE).

T3 sequence (P33533 whole entry): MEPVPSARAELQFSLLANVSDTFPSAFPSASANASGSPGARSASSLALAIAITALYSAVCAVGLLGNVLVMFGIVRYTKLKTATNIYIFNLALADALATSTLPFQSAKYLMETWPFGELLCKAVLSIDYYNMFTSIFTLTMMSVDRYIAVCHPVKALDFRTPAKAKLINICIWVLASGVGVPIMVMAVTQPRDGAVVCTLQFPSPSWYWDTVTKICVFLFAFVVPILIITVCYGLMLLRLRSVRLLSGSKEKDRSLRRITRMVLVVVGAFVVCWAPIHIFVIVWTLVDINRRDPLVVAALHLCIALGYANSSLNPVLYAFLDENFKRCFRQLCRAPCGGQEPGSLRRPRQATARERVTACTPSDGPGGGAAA
T2 sequence (P41144 whole entry): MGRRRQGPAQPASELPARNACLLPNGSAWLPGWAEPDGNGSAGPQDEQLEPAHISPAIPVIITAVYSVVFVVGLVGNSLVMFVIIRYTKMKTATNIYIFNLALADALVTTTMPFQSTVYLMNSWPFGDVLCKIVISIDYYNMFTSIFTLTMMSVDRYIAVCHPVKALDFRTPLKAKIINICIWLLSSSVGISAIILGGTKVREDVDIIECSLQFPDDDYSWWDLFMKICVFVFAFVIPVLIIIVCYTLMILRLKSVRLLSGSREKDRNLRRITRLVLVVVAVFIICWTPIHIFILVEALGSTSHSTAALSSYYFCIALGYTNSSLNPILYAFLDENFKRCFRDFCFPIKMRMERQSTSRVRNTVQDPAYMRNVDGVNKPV
T1 sequence (P35372 whole entry): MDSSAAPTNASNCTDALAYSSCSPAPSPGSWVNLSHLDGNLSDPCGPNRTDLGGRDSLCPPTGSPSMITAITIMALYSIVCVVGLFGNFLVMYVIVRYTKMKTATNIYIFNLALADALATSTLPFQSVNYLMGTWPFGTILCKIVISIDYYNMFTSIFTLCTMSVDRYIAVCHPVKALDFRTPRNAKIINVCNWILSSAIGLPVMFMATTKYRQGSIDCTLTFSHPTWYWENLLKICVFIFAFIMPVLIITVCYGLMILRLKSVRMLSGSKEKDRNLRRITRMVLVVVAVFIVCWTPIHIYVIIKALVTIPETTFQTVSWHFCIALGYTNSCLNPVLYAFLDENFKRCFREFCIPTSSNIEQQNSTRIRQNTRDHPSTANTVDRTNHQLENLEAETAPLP

(D)Ile--(D)Met--(D)Thr--(D)Trp--Gly--(D)Pro--NH2 ([dI][dM][dT][dW]G[dP]-NH2; N-terminus assumed; SMILES CC[C@@H](C)[C@@H](N)C(=O)N[C@H](CCSC)C(=O)N[C@@H](C(=O)N[C@H](Cc1c[nH]c2ccccc12)C(=O)NCC(=O)N1CCC[C@@H]1C(N)=O)[C@H](C)O) [SEQ ID NO. 130]
AGONIST OR ANTAGONIST [1]: Agonist

C[C@@H](NC(=O)[C@@H](N)Cc1ccc(O)cc1)C(=O)NCC(=O)N(C)[C@@H](Cc1ccccc1)C(=O)NCCO [DAMGO, [D-Ala^2, MePhe^4, Gly-ol^5]enkephalin]
% Basal Control [2]: 34 ± 6%

WWPKHK-NH2 [SEQ ID NO. 50]
IC50 [3]: 45 ± 7 nM | IC50 [4]: 270 ± 19 nM

Trp--Trp--Pro--Arg--NH2 [SEQ ID NO. 69]
κ/μ [5]: 2,060 | δ/μ [6]: 1,740
